Data from patent US10280188B2, “Fluorine-containing bisphosphonic acid derivative and use thereof” (NAGASAKI UNIVERSITY, priority 2015, dated 2019).
Read-outs that look alike come from different tables or passages of the source.

What was measured:
[1] = test system: human histiocytic tumor cell line U937; experiment: Specific cytotoxicity of Vδ2 positive γδ T cells on compound-treated U937 (time-resolved fluorescence)
Protocol: A dilution series of 0 μM, 100 μM, 300 μM, 1000 μM was prepared for ZOLF.
A dilution series of 0 μM, 300 μM, 1000 μM, 3000 μM was prepared for ALEF.
A dilution series of 0 μM, 300 μM, 1000 μM, 3000 μM was prepared for PAMF.
A dilution series of 0 μM, 300 μM, 1000 μM, 3000 μM was prepared for IBAF.

[2] = test system: human histiocytic tumor cell line U937; experiment: CD107a expression of Vδ2 positive γδ T cells on compound-treated U937 cells (flow cytometry); assay type: cell-based; conditions: U937 treated 2 hr; Vδ2 positive γδ T cells from normal adult (1)
Protocol: Furthermore, PE-labeled anti-human CD107a monoclonal antibody (5 μL) was added, and the mixture was incubated at 37° C. for 2 hr. Thereto was added FITC-labeled anti-human Vδ2 monoclonal antibody (2 μL), and the mixture was incubated on ice for 20 min. This was washed 3 times with 2% FCS-added PBS, and suspended in 200 μL of 2% FCS-added PBS.

[3] = test system: Vδ2 positive γδ T cells in peripheral blood mononuclear cells of adult T cell leukemia patients; experiment: Induction of Vδ2 positive γδ T cell proliferation from peripheral blood mononuclear cells of adult T cell leukemia patients (FACS); assay type: cell-based, human; conditions: ZOLF-POM 1 μM, cultured 11 days with IL-2
Protocol: (§1) Heparin blood samples (peripheral blood 10 mL) were collected from adult T cell leukemia patients (1), and diluted with 10 mL of PBS. This was overlaid on 20 mL of Ficoll-Paque and subjected to density gradient centrifugation at 600×g for 30 min at room temperature. The layer directly above Ficoll-Paque was recovered, and washed 3 times with PBS to give peripheral blood mononuclear cells. The cells were suspended in 7 mL of Yssel medium, 1 mL therefrom was stained with PE-labeled anti-human CD3 monoclonal antibody and FITC-labeled anti-human Vδ2 monoclonal antibody, and analyzed by flow cytometer. As a result, as shown in the panel on the left side in FIG. 2, Vδ2 positive γδ T cells accounted for 0.75% of lymphocyte gate. […] As a result, as shown in the panel on the right side in FIG. 2, Vδ2 positive γδ T cells accounted for 91.48% of lymphocyte gate.
as §1, with “(2),” for “(1),”, “3,” for “2,”, “1.58%” for “0.75%”, “96.83%” for “91.48%”
(§2) Heparin blood samples (peripheral blood 10 mL) were collected from adult T cell leukemia patients (3), and diluted with 10 mL of PBS. […] The cells were suspended in 7 mL of Yssel medium, 1 mL therefrom was stained with PE-labeled anti-human CD3 monoclonal antibody and FITC-labeled anti-human Vδ2 monoclonal antibody, and analyzed by flow cytometer. […]

[4] = test system: Vδ2 positive γδ T cells in peripheral blood mononuclear cells of lung cancer patients; experiment: Induction of Vδ2 positive γδ T cell proliferation from peripheral blood mononuclear cells of lung cancer patients (FACS); assay type: cell-based, human; conditions: ZOLF-POM 1 μM, cultured 11 days with IL-2
Protocol: as §1, with “collected from lung cancer patients (1),” for “collected from adult T cell leukemia patients (1),”, “with 10 ml of PBS.” for “with 10 mL of PBS.”, “in FIG. 5, Vδ2 positive” for “in FIG. 2, Vδ2 positive”, “accounted for 4.14% of lymphocyte” for “accounted for 0.75% of lymphocyte”, “accounted for 98.59% of lymphocyte” for “accounted for 91.48% of lymphocyte”
as §2, with “lung cancer” for “adult T cell leukemia”, “(2),” for “(3),”, “PBS. This was overlaid on 20 mL of Ficoll-Paque and subjected to density gradient centrifugation at 600×g for 30 min at room temperature.” for “PBS.”

[5] = test system: human bladder cancer cell line EJ-1; experiment: Specific cytotoxicity of Vδ2 positive γδ T cells on compound-treated EJ-1 (time-resolved fluorescence); conditions: γδ T cells from normal adult (1), E/T 0:1-40:1
[6] = test system: adult T cell leukemia cell line HCT-4; experiment: Specific cytotoxicity of Vδ2 positive γδ T cells on compound-treated HCT-4 (time-resolved fluorescence); conditions: γδ T cells from adult T cell leukemia patients (4), E/T 1.25:1-80:1, 1 and 10 μM tested
[7] = U937, γδ T cells from normal adult (1), E/T 0:1-40:1

In the case of `CCCCCN(C)CCC(F)(P(=O)(O)O)P(=O)(O)O` [IBAF, 1-fluoro-3-(methyl(pentyl)amino)propylidene-1,1-bisphosphonic acid], the “concentration at which sensitivity to cytotoxicity activity of Vδ2 positive γδ T cells is promoted” value [1] is reported as “at least 300 μM”.

With `NCCC(F)(P(=O)(O)O)P(=O)(O)O` [PAMF, 3-amino-1-fluoro-propylidene-1,1-bisphosphonic acid] the “compound concentration that induces maximum CD107a expression” value [2] was “several hundred” and the “concentration at which sensitivity to cytotoxicity activity of Vδ2 positive γδ T cells is promoted” value [1, 7] was “at least 300 μM”.

`CC(C)(C)C(=O)OCOP(=O)(OCOC(=O)C(C)(C)C)C(F)(Cn1ccnc1)P(=O)(OCOC(=O)C(C)(C)C)OCOC(=O)C(C)(C)C` [ZOLF-POM, tetrakispivaloyloxymethyl-1-fluoro-2-(1H-imidazoyl-1-ethylidene)-1,1-bisphosphonate] was tested, and the “Vδ2 positive γδ T cells, proportion of lymphocyte gate” value (“Vδ2 positive γδ T cells, proportion” for short) ([3]; adult T cell leukemia patient (1), 0.75% before culture) was 91.48%, the “Vδ2 positive γδ T cells, proportion” value ([3]; adult T cell leukemia patient (2), 1.58% before culture) was 96.83% and the “Vδ2 positive γδ T cells, proportion” value ([3]; adult T cell leukemia patient (3), 0.49% before culture) was 98.29%. The “Vδ2 positive γδ T cells, proportion” value ([4]; lung cancer patient (1), 4.14% before culture) was 98.59%, the “Vδ2 positive γδ T cells, proportion” value ([4]; lung cancer patient (2), 1.95% before culture) was 95.72% and the “compound concentration that induces maximum CD107a expression” value [2] was “about 100 nM”. The “concentration at which sensitivity to cytotoxicity activity of Vδ2 positive γδ T cells is promoted” value [5] was “at least 1.25 μM” and the “concentration at which sensitivity to cytotoxicity activity of Vδ2 positive γδ T cells is promoted” value [6] was “at least 1 μM”.

In the case of `NCCCC(F)(P(=O)(O)O)P(=O)(O)O` [ALEF, 4-amino-1-fluoro-butylidene-1,1-bisphosphonic acid], the “compound concentration that induces maximum CD107a expression” value [2] is reported as “several hundred” and the “concentration at which sensitivity to cytotoxicity activity of Vδ2 positive γδ T cells is promoted” value [1, 7] is reported as “at least 300 μM”.

With `O=P(O)(O)C(F)(Cn1ccnc1)P(=O)(O)O` [ZOLF, 1-fluoro-(2-imidazoyl-1-ethylidene)-1,1-bisphosphonic acid] the “compound concentration that induces maximum CD107a expression” value [2] was “several hundred”.
